Assay results from article PMC8113149 (Bioorganic & medicinal chemistry letters, 2021).
“Also recorded” adds a separate entry of the source. Read-outs that look alike come from different tables or passages of the source. One block for each compound: values may come before it.

Legend:
tubulin [1] = experiment: Inhibition of [3H]colchicine binding to tubulin
tubulin [2] = conditions: lead compounds, cited from earlier work
cellular microtubules [3] = conditions: read-out: Cellular microtubule depolymerization EC50; lead compounds; cited from earlier work
cellular microtubules [4] = experiment: Cellular microtubule depolymerization; assay type: cell-based; conditions: 5-methyl vs 5-desmethyl compound
MDA-MB-435 = experiment: Antiproliferative effects in MDA-MB-435; assay type: cell-based, human; conditions: 5-methyl vs 5-desmethyl compound
tubulin [5] = experiment: Inhibition of tubulin assembly; assay type: biochemical
NCI 60 cell line panel = experiment: NCI-60 panel, overall; assay type: cell-based; conditions: Homo sapiens, read-out: GI50 against most/many tumor cell lines
[6] = tested on: MCF-7 TUBB3 (βIII-tubulin overexpressing) tumors; experiment: MCF-7 TUBB3 orthotopic xenograft; assay type: in vivo, mouse; conditions: athymic female mice; 9 at 30 mg/kg two times weekly, paclitaxel 10 mg/kg/week
[7] = Animal weight and MTD in xenograft study

SMILES: COc1ccc(/C=C\c2cc(OC)c(OC)c(OC)c2)cc1O [CA-4, combretastatin A-4]
Inhibition of colchicine binding, % inhibition ± SD (tubulin [1]; 0.5 μM inhibitor): 84 ± 3%
Inhibition of colchicine binding, % inhibition ± SD (tubulin [2]; 0.5 μM inhibitor): 84 ± 3%
EC50 (cellular microtubules [3]): 9.8 nM

SMILES: COc1ccc(Nc2nc(C)nc3cc[nH]c23)cc1 [Compound 1]
Inhibition of colchicine binding, % inhibition ± SD (tubulin [2]; 5 μM inhibitor): 0%
EC50 (cellular microtubules [3]): > 10000 nM

SMILES: COc1ccc(N(C)c2nc(C)nc3cc[nH]c23)cc1 [Compound 2]
EC50 (cellular microtubules [3]): 1200 nM

SMILES: COc1ccc(N(C)c2nc(C)nc3ccn(C)c23)cc1 [Compound 3]
Fold more potent in cellular microtubule depolymerization than 5-desmethyl 2 (cellular microtubules [4]): 160 fold
EC50 (cellular microtubules [3]): 7.4 nM
Fold more potent in antiproliferative effects than 5-desmethyl 2 (MDA-MB-435): 22 fold

SMILES: COc1ccc(N(C)c2nc(C)nc3c(Cc4ccccc4)cn(C)c23)cc1 [Compound 5]
Fold more potent in inhibiting tubulin assembly than 5-desmethyl compound (tubulin [5]; 5 vs 4, 7 vs 6): 43 fold

SMILES: COc1ccc(N(C)c2nc(Cl)nc3cnn(C)c23)cc1 [Compound 9]
GI50 (NCI 60 cell line panel): ≤ 10 nM
Primary tumor growth / tumor volume [6]: decreased primary tumor growth
Animal weight change ([7]; percent weight change at day 41 over starting weight): no significant weight loss

Inhibition of [3H]colchicine binding, in words (tubulin [1]): completely inactive
IC50 (tubulin [5]; read-out: Inhibition of tubulin assembly IC50 ± SD): > 20 µM
SMILES: COc1ccc(Nc2nc(Cl)nc3cnn(C)c23)cc1 [Compound 10]
Inhibition of tubulin assembly, in words (tubulin [5]): did not inhibit tubulin assembly; also recorded: no effect

Inhibition of [3H]colchicine binding, in words (tubulin [1]): equipotent to 9
SMILES: CSc1ccc(N(C)c2nc(Cl)nc3cnn(C)c23)cc1 [Compound 15]

SMILES: CC(=O)O[C@H]1C(=O)[C@@]2(C)[C@H]([C@H](OC(=O)c3ccccc3)[C@]3(O)C[C@H](OC(=O)[C@H](O)[C@@H](NC(=O)c4ccccc4)c4ccccc4)C(C)=C1C3(C)C)[C@]1(OC(C)=O)CO[C@@H]1C[C@@H]2O [Paclitaxel, paclitaxel]
Maximally tolerated dose (MTD) ([7]; mice): 10 mg/kg/week
